Measured values reported in patent publication US11963995B2, “Methods comprising desmopressin” (Ferring B.V., priority 2008, dated 2024).

Columns and labels:
[1] = test system: adult patients with nocturia; experiment: Number of nocturnal voids, change from baseline to Day 28 (Study CS29 Part I); assay type: in vivo, human; conditions: for fewer nocturnal urinary voids per night compared to baseline before treatment (median): Day 28; for Change from baseline to final visit (Day 28) of nocturnal voids, mean / Change from baseline to final visit (Day 28) of nocturnal voids, median: ITT, Part I; for minimum effective dose (MED): primary endpoint nocturnal voids
Description: The term “nocturnal void” as used herein refers to a void occurring from 5 minutes after bedtime until rising in the morning with the intention of getting up.
All treatments were administered orally once per night approximately 1 hour prior to bedtime; subjects were instructed to limit their fluid intake prior to drug self-administration. […] Randomization was to be stratified by age (<65, ≥65 years) and by the absence/presence of nocturnal polyuria, defined as a ratio of nighttime urine volume/24-hour urine volume 33%. To achieve the desired number of subjects within each stratum, enrollment of subjects in a particular stratum (age and/or presence/absence of nocturnal polyuria) could be halted. If this was necessary, all investigative sites were to be informed in writing at least 1 week in advance to stop screening in a population of subjects.
A total of 750 subjects were planned to be enrolled, with approximately 150 subjects per treatment group. Part I of the study was conducted in 7 visits. Screening (Visit 1) occurred within 21 days of dosing (Day 1, Visit 2); subjects returned for follow-up visits on Days 4, 8, 15, 22, and 28 (end of Part I). Duration of treatment in Part I was 28 days.
Subjects who met the following inclusion criteria were eligible for the study: provided written informed consent prior to the performance of any study-related activity, defined as any procedure that would not have been performed during the normal management of the subject; and was a male or female subject, 18 years of age and older, with an average of ≥2 nocturnal voids per night determined via a 3-day frequency-volume chart during the screening period
All treatments were administered orally once per night approximately 1 hour prior to bedtime. Subjects were instructed to place the tablet under their tongue, without water. Subjects were provided with sufficient study drug for the duration of Part I.
The primary endpoints for efficacy assessment were: (1) change in mean number of nocturnal voids from baseline evaluation to final visit (Day 28); and (2) proportion of subjects with >33% reduction in the mean number of nocturnal voids from baseline to final visit (Day 28). A further description and corresponding data directed to the second primary endpoint (i.e., portion of subjects with >33% reduction in the mean number of nocturnal voids) are not provided herein.
Of the 799 randomized subjects in Part I, 757 subjects who received at least 1 dose of study drug and had follow-up data were included in the intent to treat (ITT) analysis dataset. […] All 799 randomized subjects received at least 1 dose of study drug (desmopressin or placebo) and had at least 1 safety assessment and, therefore, were included in the safety analysis dataset.
Missing values concerning number of nocturnal voids at Day 8, Day 15, Day 22, and Day 28 in Part I were imputed using last observation carried forward (LOCF). Missing values concerning sleep disturbance and urine volume (for average 24-hour urine volume and average nocturnal urine volume) were not imputed.

[2] = relative to vasopressin; cited from earlier work
[3] = 10 ug, all males with monitoring
[4] = 10 ug, females over 50 years of age
[5] = 10 ug, females over 65 years of age
[6] = 25 ug, all males with monitoring
[7] = 25 ug, females over 50 years of age
[8] = 25 ug, females over 65 years of age
[9] = 50 ug, all males with monitoring
[10] = 50 ug, females over 50 years of age
[11] = 50 ug, females over 65 years of age
[12] = 100 ug, all males with monitoring
[13] = 100 ug, females over 50 years of age
[14] = 100 ug, females over 65 years of age

NC(=O)CC[C@@H]1NC(=O)[C@H](Cc2ccccc2)NC(=O)[C@H](Cc2ccc(O)cc2)NC(=O)CCSSC[C@@H](C(=O)N2CCC[C@H]2C(=O)N[C@H](CCCN=C(N)N)C(=O)NCC(N)=O)NC(=O)[C@H](CC(N)=O)NC1=O [desmopressin]
fewer nocturnal urinary voids per night compared to baseline before treatment (median) ([1]; 10 μg, all females): at least 1.0 voids per night | Change from baseline to final visit (Day 28) of nocturnal voids, mean ([1]; 10 ug, all females): −1.15 | Change from baseline to final visit (Day 28) of nocturnal voids, median ([1]; 10 ug, all females): −1.00 | Change from baseline to final visit (Day 28) of nocturnal voids, mean ([1]; 10 ug, all groups): −0.83 | Change from baseline to final visit (Day 28) of nocturnal voids, median ([1]; 10 ug, all groups): −0.67 | Change from baseline to final visit (Day 28) of nocturnal voids, mean [1, 3]: −0.66 | Change from baseline to final visit (Day 28) of nocturnal voids, median [1, 3]: −0.67 | Change from baseline to final visit (Day 28) of nocturnal voids, mean ([1]; 10 ug, all males): −0.54 | Change from baseline to final visit (Day 28) of nocturnal voids, median ([1]; 10 ug, all males): −0.67 | fewer nocturnal urinary voids per night compared to baseline before treatment (median) ([1]; 10 μg, females over 50 years of age): at least 1.0 voids per night | Change from baseline to final visit (Day 28) of nocturnal voids, mean [1, 4]: −1.08 | Change from baseline to final visit (Day 28) of nocturnal voids, median [1, 4]: −1.00 | Change from baseline to final visit (Day 28) of nocturnal voids, mean [1, 5]: −0.93 | Change from baseline to final visit (Day 28) of nocturnal voids, median [1, 5]: −0.67 | fewer nocturnal urinary voids per night compared to baseline before treatment (median) ([1]; 25 μg, all females): at least 1.0 voids per night | Change from baseline to final visit (Day 28) of nocturnal voids, mean ([1]; 25 ug, all females): −1.22 | Change from baseline to final visit (Day 28) of nocturnal voids, median ([1]; 25 ug, all females): −1.33 | Change from baseline to final visit (Day 28) of nocturnal voids, mean ([1]; 25 ug, all groups): −1.00 | Change from baseline to final visit (Day 28) of nocturnal voids, median ([1]; 25 ug, all groups): −1.00 | Change from baseline to final visit (Day 28) of nocturnal voids, mean [1, 6]: −0.91 | Change from baseline to final visit (Day 28) of nocturnal voids, median [1, 6]: −0.67 | Change from baseline to final visit (Day 28) of nocturnal voids, mean ([1]; 25 ug, all males): −0.83 | Change from baseline to final visit (Day 28) of nocturnal voids, median ([1]; 25 ug, all males): −0.67 | fewer nocturnal urinary voids per night compared to baseline before treatment (median) ([1]; 25 μg, females over 50 years of age): at least 1.0 voids per night | Change from baseline to final visit (Day 28) of nocturnal voids, mean [1, 7]: −1.35 | Change from baseline to final visit (Day 28) of nocturnal voids, median [1, 7]: −1.33 | fewer nocturnal urinary voids per night compared to baseline before treatment (median) ([1]; 25 μg, females over 65 years of age): at least 1.67 voids per night | Change from baseline to final visit (Day 28) of nocturnal voids, mean [1, 8]: −1.27 | Change from baseline to final visit (Day 28) of nocturnal voids, median [1, 8]: −1.67 | proportion of subjects with >75% reductions in the mean number of nocturnal voids ([1]; 50 μg, Day 28 (placebo 5%)): 10% | proportion of subjects with >50% reductions in the mean number of nocturnal voids ([1]; 50 μg, Day 28 (placebo 20%)): 28% | proportion of subjects with >33% reductions in the mean number of nocturnal voids ([1]; 50 μg, Day 28 (placebo 47%)): 53% | Change from baseline to final visit (Day 28) of nocturnal voids, mean ([1]; 50 ug, all females): −1.23 | Change from baseline to final visit (Day 28) of nocturnal voids, median ([1]; 50 ug, all females): −1.00 | Change from baseline to final visit (Day 28) of nocturnal voids, mean ([1]; 50 ug, all groups): −1.18 | Change from baseline to final visit (Day 28) of nocturnal voids, median ([1]; 50 ug, all groups): −1.00 | Change from baseline to final visit (Day 28) of nocturnal voids, mean [1, 9]: −1.09 | Change from baseline to final visit (Day 28) of nocturnal voids, median [1, 9]: −1.00 | Change from baseline to final visit (Day 28) of nocturnal voids, mean ([1]; 50 ug, all males): −1.13 | Change from baseline to final visit (Day 28) of nocturnal voids, median ([1]; 50 ug, all males): −1.00 | Change from baseline to final visit (Day 28) of nocturnal voids, mean [1, 10]: −1.15 | Change from baseline to final visit (Day 28) of nocturnal voids, median [1, 10]: −1.00 | Change from baseline to final visit (Day 28) of nocturnal voids, mean [1, 11]: −0.97 | Change from baseline to final visit (Day 28) of nocturnal voids, median [1, 11]: −1.00 | Change from baseline to final visit (Day 28) of nocturnal voids, mean ([1]; 100 ug, all females): −1.51 | Change from baseline to final visit (Day 28) of nocturnal voids, median ([1]; 100 ug, all females): −1.33 | Change from baseline to final visit (Day 28) of nocturnal voids, mean ([1]; 100 ug, all groups): −1.43 | Change from baseline to final visit (Day 28) of nocturnal voids, median ([1]; 100 ug, all groups): −1.33 | Change from baseline to final visit (Day 28) of nocturnal voids, mean [1, 12]: −1.41 | Change from baseline to final visit (Day 28) of nocturnal voids, median [1, 12]: −1.67 | Change from baseline to final visit (Day 28) of nocturnal voids, mean ([1]; 100 ug, all males): −1.38 | Change from baseline to final visit (Day 28) of nocturnal voids, median ([1]; 100 ug, all males): −1.33 | Change from baseline to final visit (Day 28) of nocturnal voids, mean [1, 13]: −1.44 | Change from baseline to final visit (Day 28) of nocturnal voids, median [1, 13]: −1.33 | Change from baseline to final visit (Day 28) of nocturnal voids, mean [1, 14]: −1.00 | Change from baseline to final visit (Day 28) of nocturnal voids, median [1, 14]: −1.00 | minimum effective dose (MED) ([1]; females): 25 µg | minimum effective dose (MED) ([1]; males): 100 µg | antidiuretic-to-vasopressor ratio, greater than vasopressin [2]: 3000 fold
